Measurements taken from patent US9920010B2, “CXCR7 receptor modulators” (IDORSIA PHARMACEUTICALS LTD, priority 2013, dated 2018).

molecular target: T1, CXCR7 (Homo sapiens, UniProt P25106); assay: PathHunter CHO-K1 CXCR7 b-arrestin recruitment assay (CXCR7 agonistic activity); type: cell-based; settings: PathHunter CHO-K1 CXCR7 b-arrestin cell line
T1 construct: host or cells: CHO-K1 (PathHunter CHO-K1 CXCR7 b-arrestin cell line, stably transfected)
Procedure, shortened: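 Stable CHO-K1 line with C-terminally ProLink-tagged CXCR7 and β-arrestin 2–EA fusion; β-arrestin recruitment restores β-gal activity, read by chemiluminescence after 1 h RT detection. Cells seeded 24 h, starved in OPTIMEM 3–4 h, exposed to compounds 90 min at 37 °C in HBSS/HEPES/BSA. Geometric-mean EC50 from repeated measurements.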

T1 sequence (P25106 whole entry): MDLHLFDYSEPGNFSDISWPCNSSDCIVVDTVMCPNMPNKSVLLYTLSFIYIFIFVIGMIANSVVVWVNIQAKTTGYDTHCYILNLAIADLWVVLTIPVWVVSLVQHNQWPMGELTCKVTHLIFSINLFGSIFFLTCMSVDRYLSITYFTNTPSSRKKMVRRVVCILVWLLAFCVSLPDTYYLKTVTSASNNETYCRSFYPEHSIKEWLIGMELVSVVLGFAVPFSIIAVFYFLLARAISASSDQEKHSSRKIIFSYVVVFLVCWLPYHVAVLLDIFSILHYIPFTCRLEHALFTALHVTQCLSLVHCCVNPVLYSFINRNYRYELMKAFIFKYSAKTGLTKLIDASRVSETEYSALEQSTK
T1 sequence (P32121 whole entry partner): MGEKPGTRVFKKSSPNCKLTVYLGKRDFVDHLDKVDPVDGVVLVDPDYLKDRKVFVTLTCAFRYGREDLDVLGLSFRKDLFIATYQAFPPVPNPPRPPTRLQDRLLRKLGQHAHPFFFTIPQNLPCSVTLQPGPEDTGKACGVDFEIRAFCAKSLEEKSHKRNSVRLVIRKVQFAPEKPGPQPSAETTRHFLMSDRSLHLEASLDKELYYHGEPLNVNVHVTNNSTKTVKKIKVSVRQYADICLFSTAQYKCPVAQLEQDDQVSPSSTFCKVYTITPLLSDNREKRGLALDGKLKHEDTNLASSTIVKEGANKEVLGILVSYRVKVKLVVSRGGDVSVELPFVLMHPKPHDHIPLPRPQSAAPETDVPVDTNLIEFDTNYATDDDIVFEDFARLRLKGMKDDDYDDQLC

`CN1CCCC1CCN(Cc1ccccc1)C(=O)Cc1cccc2c1CCN(CC1CC1)C2` (racemic) [Example 4, rac-N-Benzyl-2-(2-cyclopropylmethyl-1,2,3,4-tetrahydro-isoquinolin-5-yl)-N-[2-(1-methyl-pyrrolidin-2-yl)-ethyl]-acetamide] and `O=C(/C=C/c1cccc2c1CCN(CC1CC1)C2)N(CCO)Cc1ccccc1` [Example 138, (E)-N-Benzyl-3-(2-cyclopropylmethyl-1,2,3,4-tetrahydro-isoquinolin-5-yl)-N-(2-hydroxy-ethyl)-acrylamide] are within 1.5-fold of each other in EC50: 47 nM for the first, 55 nM for the second.

First: COCCN1CCc2c(cccc2NCC(=O)N(CCN2CCC(F)(F)CC2)Cc2ncccc2Cl)C1 [Example 305, N-(3-Chloro-pyridin-2-ylmethyl)-N-[2-(4,4-difluoro-piperidin-1-yl)-ethyl]-2-[2-(2-methoxy-ethyl)-1,2,3,4-tetrahydro-isoquinolin-5-ylamino]-acetamide]
Second: O=C(CNc1cccc2c1CCN(CC1CC1)C2)N(CCN1CCCC1)Cc1ccccc1Cl [Example 43, N-(2-Chloro-benzyl)-2-(2-cyclopropylmethyl-1,2,3,4-tetrahydro-isoquinolin-5-ylamino)-N-(2-pyrrolidin-1-yl-ethyl)-acetamide]
The EC50 of the first is 120-fold higher: 230 nM for the first, 2 nM for the second. The second is the more potent here.

`CC(C)CCN(Cc1ccccc1)C(=O)CNc1cccc2c1CN(C)CC2` [compound 183] and `CCN1CCc2cccc(NCC(=O)N(CCN(C)C)Cc3ccc(C)cn3)c2C1` [compound 527] are within 1.5-fold of each other in EC50: 140 nM for the first, 162 nM for the second.

First: NS(=O)(=O)CCN(Cc1ccccc1C(F)(F)F)C(=O)CNc1cccc2c1CCN(CC1CC1)C2 [Example 233, 2-(2-Cyclopropylmethyl-1,2,3,4-tetrahydro-isoquinolin-5-ylamino)-N-(2-sulfamoyl-ethyl)-N-(2-trifluoromethyl-benzyl)-acetamide]
Second: C=CCN(C)CCN(Cc1ccccc1C(F)(F)F)C(=O)CNc1cccc2c1CCN(CC1CC1)C2 [Example 245, N-[2-(Allyl-methyl-amino)-ethyl]-2-(2-cyclopropylmethyl-1,2,3,4-tetrahydro-isoquinolin-5-ylamino)-N-(2-trifluoromethyl-benzyl)-acetamide]
The EC50 of the first is 24-fold higher: 72 nM for the first, 3 nM for the second.

Going from `C/C(=C\c1ccccc1)CN(CCN(C)C)C(=O)CNc1cccc2c1CCN(CC1CC1)C2` [Example 45, 2-(2-Cyclopropylmethyl-1,2,3,4-tetrahydro-isoquinolin-5-ylamino)-N-(2-dimethylamino-ethyl)-N-((E)-2-methyl-3-phenyl-allyl)-acetamide] to `CC(Oc1cccc2c1CCN(CC1CC1)C2)C(=O)N(CCN(C)C)Cc1ccccc1C(F)(F)F` (racemic) [Example 350, rac-2-(2-Cyclopropylmethyl-1,2,3,4-tetrahydro-isoquinolin-5-yloxy)-N-(2-dimethylamino-ethyl)-N-(2-trifluoromethyl-benzyl)-propionamide], the EC50 rises from 8 nM to 32 nM (4-fold).

Compared with `CN(C)CCN(Cc1ccccc1C(F)(F)F)C(=O)CNc1cccc2c1CCN(c1ncccn1)C2` [Example 375, N-(2-Dimethylamino-ethyl)-2-(2-pyrimidin-2-yl-1,2,3,4-tetrahydro-isoquinolin-5-ylamino)-N-(2-trifluoromethyl-benzyl)-acetamide], `CNCCN(Cc1ccccc1C(F)(F)F)C(=O)CNc1cccc2c1CCN(C(=O)OC)C2` [compound 394, 5-({[(2-Methylamino-ethyl)-(2-trifluoromethyl-benzyl)-carbamoyl]-methyl}-amino)-3,4-dihydro-1H-isoquinoline-2-carboxylic acid methyl ester] is 1.5-fold higher in EC50: 6 nM for the first, 9 nM for the second. The first is the more potent here.

Compared with `CC(C)(O)CN(Cc1ncccc1Br)C(=O)CNc1cccc2c1CN(CC1CC1)CC2` [compound 488], `CN(C)CCN(Cc1ncccc1C(F)(F)F)C(=O)CNc1ccc(F)c2c1CCN(CC1CC1)C2` [Example 289, 2-(2-Cyclopropylmethyl-8-fluoro-1,2,3,4-tetrahydro-isoquinolin-5-ylamino)-N-(2-dimethylamino-ethyl)-N-(3-trifluoromethyl-pyridin-2-ylmethyl)-acetamide] is 5.7-fold lower in EC50: 91 nM for the first, 16 nM for the second. The second is the more potent here.
